What was measured:
[1] = biological target: recombinant human Mcl-1 (residues 171-327) / Bim interaction (Homo sapiens (Human), UniProt Q07820); assay: biochemical; type: binding; details: 0.1 nM Mcl-1(171-327), 0.05 nM biotin-Bim (51-76); read-out: Mcl-1 HTRF IC50
[2] = tested on: human multiple myeloma cell line, OPM-2; assay: Cell viability assay (OPM-2 10 FBS), CellTiter-Glo; type: cell-based; details: Homo sapiens, OPM-2, 16 h, read-out: OPM-2 10% FBS IC50 IP, OPM-2 cells, 10% FBS, 16 h incubation
Outline: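 Cells were seeded at 3000 cells/well in RPMI 1640 with 10% FBS and exposed to serially diluted compounds for 16 h at 37 °C, 5% CO2.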

Sequence of recombinant human Mcl-1 (residues 171-327) / Bim interaction (Q07820 171-327): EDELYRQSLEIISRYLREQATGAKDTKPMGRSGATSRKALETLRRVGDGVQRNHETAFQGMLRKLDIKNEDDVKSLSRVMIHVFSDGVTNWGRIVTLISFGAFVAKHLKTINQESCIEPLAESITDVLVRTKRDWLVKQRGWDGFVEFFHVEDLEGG

SMILES	IC50 [1]	IC50 [2]
CO[C@]1(CN2CCN3C(=O)[C@@H](C)OC[C@@H]3C2)/C=C/C[C@H](C)[C@@H](C)S(=O)(=O)NC(=O)c2ccc3c(c2)N(C[C@@H]2CC[C@H]21)C[C@@]1(CCCc2cc(Cl)ccc21)CO3 [Example 144, (1S,3′R,6′R,7′R,8′E,11′S,12′R)-6-chloro-7′-methoxy-11′,12′-dimethyl-7′-(((3R,9aS)-3-methyl-4-oxohexahydropyrazino[2,1-c][1,4]oxazin-8(1H)-yl)methyl)-3,4-dihydro-2H,15′H-spiro[naphthalene-1,22′-[20]oxa[13]thia[1,14]diazatetracyclo [14.7.2.0~3,6~.0~19,24~]pentacosa[8,16,18,24]tetraen]-15′-one 13′,13′-dioxide]	0.271 nM	163 nM
CO[C@@]1(CN2CCN3C[C@H](C)OC[C@@H]3C2)/C=C/C[C@H](C)[C@@H](C)S(=O)(=O)NC(=O)c2ccc3c(c2)N(C[C@@H]2CC[C@H]21)C[C@@]1(CCCc2cc(Cl)ccc21)CO3 [Example 145, (1S,3′R,6′R,7′S,8′E,11′S,12′R)-6-chloro-7′-methoxy-11′,12′-dimethyl-7′-(((3S,9aS)-3-methylhexahydropyrazino[2,1-c][1,4]oxazin-8(1H)-yl)methyl)-3,4-dihydro-2H,15′H-spiro[naphthalene-1,22′-[20]oxa[13]thia[1,14]diazatetracyclo [14.7.2.0~3,6~.0~19,24~]pentacosa[8,16,18,24]tetraen]-15′-one 13′,13′-dioxide]	0.124 nM	113 nM
CO[C@]1(CN2CCN3C[C@H](C)OC[C@@H]3C2)/C=C/C[C@H](C)[C@@H](C)S(=O)(=O)NC(=O)c2ccc3c(c2)N(C[C@@H]2CC[C@H]21)C[C@@]1(CCCc2cc(Cl)ccc21)CO3 [Example 146, (1S,3′R,6′R,7′R,8′E,11′S,12′R)-6-chloro-7′-methoxy-11′,12′-dimethyl-7′-(((3S,9aS)-3-methylhexahydropyrazino[2,1-c][1,4]oxazin-8(1H)-yl)methyl)-3,4-dihydro-2H,15′H-spiro[naphthalene-1,22′-[20]oxa[13]thia[1,14]diazatetracyclo [14.7.2.0~3,6~.0~19,24~]pentacosa[8,16,18,24]tetraen]-15′-one 13′,13′-dioxide]	0.337 nM	150 nM
CO[C@@]1(CN2CCN3C[C@@H](C)OC[C@@H]3C2)/C=C/C[C@H](C)[C@@H](C)S(=O)(=O)NC(=O)c2ccc3c(c2)N(C[C@@H]2CC[C@H]21)C[C@@]1(CCCc2cc(Cl)ccc21)CO3 [Example 147, (1S,3′R,6′R,7′S,8′E,11′S,12′R)-6-chloro-7′-methoxy-11′,12′-dimethyl-7′-(((3R,9aS)-3-methylhexahydropyrazino[2,1-c][1,4]oxazin-8(1H)-yl)methyl)-3,4-dihydro-2H,15′H-spiro[naphthalene-1,22′-[20]oxa[13]thia[1,14]diazatetracyclo [14.7.2.0~3,6~.0~19,24~]pentacosa[8,16,18,24]tetraen]-15′-one 13′,13′-dioxide]	0.376 nM	157 nM
CO[C@@]1(CN2CCc3ccccc3C2)/C=C/C[C@H](C)[C@@H](C)S(=O)(=O)NC(=O)c2ccc3c(c2)N(C[C@@H]2CC[C@H]21)C[C@@]1(CCCc2cc(Cl)ccc21)CO3 [Example 148, (1S,3′R,6′R,7′S,8′E,11′S,12′R)-6-chloro-7′-(3,4-dihydro-2(1H)-isoquinolinylmethyl)-7′-methoxy-11′,12′-dimethyl-3,4-dihydro-2H,15′H-spiro[naphthalene-1,22′-[20]oxa[13]thia[1,14]diazatetracyclo [14.7.2.0~3,6~.0~19,24~]pentacosa[8,16,18,24]tetraen]-15′-one 13′,13′-dioxide]	1.2 nM	1610 nM
CO[C@]1(CN2CC(=O)N3CCCC[C@@H]3C2)/C=C/C[C@H](C)[C@@H](C)S(=O)(=O)NC(=O)c2ccc3c(c2)N(C[C@@H]2CC[C@H]21)C[C@@]1(CCCc2cc(Cl)ccc21)CO3 [Example 149]	0.128 nM	119 nM
CO[C@@]1(CN2CC(=O)N3CCCC[C@@H]3C2)/C=C/C[C@H](C)[C@@H](C)S(=O)(=O)NC(=O)c2ccc3c(c2)N(C[C@@H]2CC[C@H]21)C[C@@]1(CCCc2cc(Cl)ccc21)CO3 [Example 150, (1S,3′R,6′R,7′S,8′E,11′S,12′R)-6-chloro-7′-methoxy-11′,12′-dimethyl-7′-(((9aR)-4-oxooctahydro-2H-pyrido[1,2-a]pyrazin-2-yl)methyl)-3,4-dihydro-2H,15′H-spiro[naphthalene-1,22′-[20]oxa[13]thia[1,14]diazatetracyclo [14.7.2.0~3,6~.0~19,24~]pentacosa[8,16,18,24]tetraen]-15′-one 13′,13′-dioxide]	0.193 nM	245 nM
COCCO[C@]1(CN2CCN3CCCC[C@@H]3C2)/C=C/C[C@H](C)[C@@H](C)S(=O)(=O)NC(=O)c2ccc3c(c2)N(C[C@@H]2CC[C@H]21)C[C@@]1(CCCc2cc(Cl)ccc21)CO3 [Example 152, (1S,3′R,6′R,7′R,8′E,11′S,12′R)-6-chloro-7′-(2-methoxyethoxy)-11′,12′-dimethyl-7′-((9aR)-octahydro-2H-pyrido[1,2-a]pyrazin-2-ylmethyl)-3,4-dihydro-2H,15′H-spiro[naphthalene-1,22′-[20]oxa[13]thia[1,14]diazatetracyclo [14.7.2.0~3,6~.0~19,24~]pentacosa[8,16,18,24]tetraen]-15′-one 13′,13′-dioxide]	0.092 nM	110 nM
CO[C@]1(CN2CCN(CC(C)(C)C)CC2)/C=C/C[C@H](C)[C@@H](C)S(=O)(=O)NC(=O)c2ccc3c(c2)N(C[C@@H]2CC[C@H]21)C[C@@]1(CCCc2cc(Cl)ccc21)CO3 [Example 153, (1S,3′R,6′R,7′R,8′E,11′S,12′R)-6-chloro-7′-((4-(2,2-dimethylpropyl)-1-piperazinyl)methyl)-7′-methoxy-11′,12′-dimethyl-3,4-dihydro-2H,15′H-spiro[naphthalene-1,22′-[20]oxa[13]thia[1,14]diazatetracyclo [14.7.2.0~3,6~.0~19,24~]pentacosa[8,16,18,24]tetraen]-15′-one 13′,13′-dioxide]	0.96 nM	10800 nM
C[C@@H]1[C@@H](C)C/C=C/[C@@](CN2CCN3CCCC[C@@H]3C2)(OCC2CC2)[C@@H]2CC[C@H]2CN2C[C@@]3(CCCc4cc(Cl)ccc43)COc3ccc(cc32)C(=O)NS1(=O)=O [Example 155, (1S,3′R,6′R,7′R,8′E,11′S,12′R)-6-chloro-7′-(cyclopropylmethoxy)-11′,12′-dimethyl-7′-((9aR)-octahydro-2H-pyrido[1,2-a]pyrazin-2-ylmethyl)-3,4-dihydro-2H,15′H-spiro[naphthalene-1,22′-[20]oxa[13]thia[1,14]diazatetracyclo [14.7.2.0~3,6~.0~19,24~]pentacosa[8,16,18,24]tetraen]-15′-one 13′,13′-dioxide]	0.228 nM	378 nM
CO[C@@]1(CN2CCN3CCOC[C@@H]3C2)/C=C/[C@H](C)[C@H](C)CS(=O)(=O)NC(=O)c2ccc3c(c2)N(C[C@@H]2CC[C@H]21)C[C@@]1(CCCc2cc(Cl)ccc21)CO3 [Example 156, (1S,3′R,6′R,7′S,8′E,10′S,11′S)-6-chloro-7′-((9aS)-hexahydropyrazino[2,1-c][1,4]oxazin-8(1H)-ylmethyl)-7′-methoxy-10′,11′-dimethyl-3,4-dihydro-2H,15′H-spiro[naphthalene-1,22′-[20]oxa[13]thia[1,14]diazatetracyclo [14.7.2.0~3,6~.0~19,24~]pentacosa[8,16,18,24]tetraen]-15′-one 13′,13′-dioxide]	0.096 nM	62 nM
CO[C@]1(CN2CCN3CCOC[C@@H]3C2)/C=C/[C@H](C)[C@H](C)CS(=O)(=O)NC(=O)c2ccc3c(c2)N(C[C@@H]2CC[C@H]21)C[C@@]1(CCCc2cc(Cl)ccc21)CO3 [Example 157, (1S,3′R,6′R,7′R,8′E,10′S,11′S)-6-chloro-7′-((9aS)-hexahydropyrazino[2,1-c][1,4]oxazin-8(1H)-ylmethyl)-7′-methoxy-10′,11′-dimethyl-3,4-dihydro-2H,15′H-spiro[naphthalene-1,22′-[20]oxa[13]thia[1,14]diazatetracyclo [14.7.2.0~3,6~.0~19,24~]pentacosa[8,16,18,24]tetraen]-15′-one 13′,13′-dioxide]	0.126 nM	121 nM
CO[C@@]1(CN2CCN(C3COC3)CC2)/C=C/[C@H](C)[C@H](C)CS(=O)(=O)NC(=O)c2ccc3c(c2)N(C[C@@H]2CC[C@H]21)C[C@@]1(CCCc2cc(Cl)ccc21)CO3 [Example 158, (1S,3′R,6′R,7′S,8′E,10′S,11′S)-6-chloro-7′-methoxy-10′,11′-dimethyl-7′-((4-(3-oxetanyl)-1-piperazinyl)methyl)-3,4-dihydro-2H,15′H-spiro[naphthalene-1,22′-[20]oxa[13]thia[1,14]diazatetracyclo [14.7.2.0~3,6~.0~19,24~]pentacosa[8,16,18,24]tetraen]-15′-one 13′,13′-dioxide]	0.092 nM	18 nM
CO[C@]1(CN2CCN(C3COC3)CC2)/C=C/[C@H](C)[C@H](C)CS(=O)(=O)NC(=O)c2ccc3c(c2)N(C[C@@H]2CC[C@H]21)C[C@@]1(CCCc2cc(Cl)ccc21)CO3 [Example 159, (1S,3′R,6′R,7′R,8′E,10′S,11′S)-6-chloro-7′-methoxy-10′,11′-dimethyl-7′-((4-(3-oxetanyl)-1-piperazinyl)methyl)-3,4-dihydro-2H,15′H-spiro[naphthalene-1,22′-[20]oxa[13]thia[1,14]diazatetracyclo [14.7.2.0~3,6~.0~19,24~]pentacosa[8,16,18,24]tetraen]-15′-one 13′,13′-dioxide]	0.096 nM	79 nM

Source: US10821115B2, “Compounds that inhibit Mcl-1 protein” (priority 2017, dated 2020)
